Marks after values point to notes of the source that are not given here.
Columns and labels:
[1] = test system: Puccinia recondita f. sp. tritici; test: Test H: wheat leaf rust, curative spray on inoculated wheat seedlings, visual disease rating; settings: for Test H rating (% disease control) / Test H disease control rating: 100 = 100% disease control; for Test H disease control rating: sprayed after inoculation, 0 = no disease control relative to controls
Description: General protocol for preparing test suspensions for Tests A-J: the test compounds were first dissolved in acetone in an amount equal to 3% of the final volume and then suspended at the desired concentration (in ppm) in acetone and purified water (50/50 mix by volume) containing 250 ppm of the surfactant Trem® 014 (polyhydric alcohol esters). The resulting test suspensions were then used in Tests A-J. Spraying a 200 ppm test suspension to the point of run-off on the test plants was the equivalent of a rate of 500 g/ha. Unless otherwise indicated, the rating values indicate a 200 ppm test suspension was used. (An asterisk “*” next to the rating value indicates a 40 ppm test suspension was used.)
Wheat seedlings were inoculated with a spore suspension of Puccinia recondita f. sp. tritici (the causal agent of wheat leaf rust) and incubated in a saturated atmosphere at 20° C. for 24 h, and then moved to a growth chamber at 20° C. for 2 days. At the end of this time the test suspension was sprayed to the point of run-off, and then the seedlings were moved to a growth chamber at 20° C. for 6 days after which time visual disease ratings were made.

[2] = test system: Puccinia recondita f. sp. tritici; test: Test I: wheat leaf rust, preventive spray on wheat seedlings, visual disease rating; settings: for Test I rating (% disease control) / Test I disease control rating: 100 = 100% disease control; for Test I disease control rating: sprayed the day before inoculation, 0 = no disease control relative to controls
Septoria nodorum = test: Test F: Septoria glume blotch, preventive spray on wheat seedlings, visual disease rating; settings: for Test F rating (% disease control) / Test F disease control rating: 100 = 100% disease control; for Test F disease control rating: 0 = no disease control relative to controls
Alternaria solani = test: Test C: tomato early blight, preventive spray on tomato seedlings, visual disease rating; settings: for Test C rating (% disease control) / Test C disease control rating: 100 = 100% disease control; for Test C disease control rating: 0 = no disease control relative to controls
[3] = test system: Erysiphe graminis f sp. tritici; test: Test J: wheat powdery mildew, preventive spray on wheat seedlings, visual disease rating; settings: for Test J rating (% disease control) / Test J disease control rating: 100 = 100% disease control; for Test J disease control rating: sprayed the day before inoculation, 0 = no disease control relative to controls
Septoria tritici = test: Test G: wheat leaf blotch, preventive spray on wheat seedlings, visual disease rating; settings: for Test G rating (% disease control) / Test G disease control rating: 100 = 100% disease control; for Test G disease control rating: sprayed the day before inoculation, 0 = no disease control relative to controls
Botrytis cinerea = test: Test B: tomato Botrytis, preventive spray on tomato seedlings, visual disease rating; settings: for Test B rating (% disease control) / Test B disease control rating: 100 = 100% disease control; for Test B disease control rating: 0 = no disease control relative to controls
[4] = wheat leaf rust, curative, 0 = no control relative to controls
[5] = wheat leaf rust, preventive, 0 = no control relative to controls
[6] = Septoria glume blotch, 0 = no control relative to controls
[7] = tomato early blight, 0 = no control relative to controls
[8] = wheat powdery mildew, 0 = no control relative to controls
[9] = wheat leaf blotch, 0 = no control relative to controls
[10] = tomato Botrytis, 0 = no control relative to controls
[11] = wheat leaf rust, curative spray, 0 = no control
[12] = wheat leaf rust, preventive spray, 0 = no control
[13] = Septoria glume blotch on wheat, preventive spray, 0 = no control
[14] = tomato early blight, preventive spray, 0 = no control
[15] = wheat powdery mildew, preventive spray, 0 = no control
[16] = wheat leaf blotch, preventive spray, 0 = no control
[17] = tomato Botrytis, preventive spray, 0 = no control

Cc1nn(C)c(Nc2c(F)cc(F)cc2F)c1-c1cccc(F)c1F [compound 203]
Test H rating (% disease control) [1, 4]: 0%
Test I rating (% disease control) [2, 5]: 96%
Test F rating (% disease control) (Septoria nodorum; [6]): 0%
Test C rating (% disease control) (Alternaria solani; [7]): 0%
Test J rating (% disease control) [3, 8]: 100%
Test G rating (% disease control) (Septoria tritici; [9]): 98%
Test B rating (% disease control) (Botrytis cinerea; [10]): 99%

Cc1nn(CC(=O)O)c(Oc2c(F)cc([N+](=O)[O-])cc2F)c1-c1c(F)cc(F)cc1F [compound 68]
Test H rating (% disease control) [1, 11]: 6%
Test I rating (% disease control) [2, 12]: 0%
Test F rating (% disease control) (Septoria nodorum; [13]): 0%
Test C rating (% disease control) (Alternaria solani; [14]): 0%
Test J rating (% disease control) [3, 15]: 0%
Test G rating (% disease control) (Septoria tritici; [16]): 0%
Test B rating (% disease control) (Botrytis cinerea; [17]): 0%

COc1cc(F)c(Nc2c(-c3ccccc3C(F)(F)F)c(C)nn2C)c(F)c1 [compound 240]
Test H rating (% disease control) [1, 4]: 0%
Test I rating (% disease control) [2, 5]: 99%
Test F rating (% disease control) (Septoria nodorum; [6]): 0%
Test C rating (% disease control) (Alternaria solani; [7]): 99%
Test J rating (% disease control) [3, 8]: 100%
Test G rating (% disease control) (Septoria tritici; [9]): 99%
Test B rating (% disease control) (Botrytis cinerea; [10]): 100%

Cc1nn(C)c(Nc2cccc(F)c2F)c1-c1ccc(F)cc1F [compound 214]
Test H rating (% disease control) [1, 4]: 9%
Test I rating (% disease control) [2, 5]: 99%
Test F rating (% disease control) (Septoria nodorum; [6]): 0%
Test C rating (% disease control) (Alternaria solani; [7]): 51%
Test J rating (% disease control) [3, 8]: 100%
Test G rating (% disease control) (Septoria tritici; [9]): 100%
Test B rating (% disease control) (Botrytis cinerea; [10]): 98%

COc1ccc(Nc2c(-c3ccc(F)cc3Cl)c(C)nn2C)c(Cl)c1 [compound 322]
Test H disease control rating ([1]; wheat leaf rust): 99%
Test I disease control rating ([2]; wheat leaf rust): 100%
Test F disease control rating (Septoria nodorum; Septoria glume blotch on wheat): 0%
Test C disease control rating (Alternaria solani; tomato early blight): 93%
Test J disease control rating ([3]; wheat powdery mildew): 100%
Test G disease control rating (Septoria tritici; wheat leaf blotch): 100%
Test B disease control rating (Botrytis cinerea; tomato Botrytis): 100%

COc1cc(F)c(-c2c(C)nn(C)c2Oc2c(F)cccc2F)c(F)c1 [compound 84]
Test H rating (% disease control) [1, 11]: 98%
Test I rating (% disease control) [2, 12]: 100%
Test F rating (% disease control) (Septoria nodorum; [13]): 78%
Test C rating (% disease control) (Alternaria solani; [14]): 100%
Test J rating (% disease control) [3, 15]: 99%
Test G rating (% disease control) (Septoria tritici; [16]): 100%
Test B rating (% disease control) (Botrytis cinerea; [17]): 100%

COc1cc(F)c(-c2c(C)nn(C)c2Nc2cc(Cl)c(OC)cc2OC)c(F)c1 [compound 81]
Test H rating (% disease control) [1, 11]: 0%
Test I rating (% disease control) [2, 12]: 27%
Test F rating (% disease control) (Septoria nodorum; [13]): 0%
Test C rating (% disease control) (Alternaria solani; [14]): 0%
Test J rating (% disease control) [3, 15]: 0%
Test G rating (% disease control) (Septoria tritici; [16]): 0%
Test B rating (% disease control) (Botrytis cinerea; [17]): 97%

COc1cc(Oc2c(-c3c(F)cc(F)cc3F)c(C)nn2C)ccc1[N+](=O)[O-] [compound 151]
Test H rating (% disease control) [1, 4]: 0%
Test I rating (% disease control) [2, 5]: 54%
Test F rating (% disease control) (Septoria nodorum; [6]): 0%
Test C rating (% disease control) (Alternaria solani; [7]): 9%
Test J rating (% disease control) [3, 8]: 64%
Test G rating (% disease control) (Septoria tritici; [9]): 96%
Test B rating (% disease control) (Botrytis cinerea; [10]): 99%

Cc1nn(Cc2ccccc2)c(Oc2c(F)cc([N+](=O)[O-])cc2F)c1-c1c(F)cc(F)cc1F [compound 53]
Test H rating (% disease control) [1, 11]: 0%
Test I rating (% disease control) [2, 12]: 0%
Test F rating (% disease control) (Septoria nodorum; [13]): 0%
Test C rating (% disease control) (Alternaria solani; [14]): 0%
Test J rating (% disease control) [3, 15]: 0%
Test G rating (% disease control) (Septoria tritici; [16]): 0%
Test B rating (% disease control) (Botrytis cinerea; [17]): 0%

COc1cc(F)c(Nc2c(-c3ccccc3F)c(C)nn2C)c(F)c1 [compound 183]
Test H rating (% disease control) [1, 4]: 27%
Test I rating (% disease control) [2, 5]: 94%
Test F rating (% disease control) (Septoria nodorum; [6]): 67%
Test C rating (% disease control) (Alternaria solani; [7]): 100%
Test J rating (% disease control) [3, 8]: 99%
Test G rating (% disease control) (Septoria tritici; [9]): 99%
Test B rating (% disease control) (Botrytis cinerea; [10]): 97%

COc1ccc(Nc2c(-c3c(F)cc(F)cc3F)c(C)nn2C)cc1OC [compound 93]
Test H rating (% disease control) [1, 11]: 0%
Test I rating (% disease control) [2, 12]: 9%
Test F rating (% disease control) (Septoria nodorum; [13]): 0%
Test C rating (% disease control) (Alternaria solani; [14]): 0%
Test J rating (% disease control) [3, 15]: 0%
Test G rating (% disease control) (Septoria tritici; [16]): 77%
Test B rating (% disease control) (Botrytis cinerea; [17]): 41%

Cc1nn(C)c(Nc2cncnc2)c1-c1ccc(F)cc1Cl [compound 270]
Test H rating (% disease control) [1, 4]: 8%
Test I rating (% disease control) [2, 5]: 0%
Test F rating (% disease control) (Septoria nodorum; [6]): 0%
Test C rating (% disease control) (Alternaria solani; [7]): 86%
Test J rating (% disease control) [3, 8]: 81%
Test G rating (% disease control) (Septoria tritici; [9]): 91%
Test B rating (% disease control) (Botrytis cinerea; [10]): 92%

COc1cc(F)c(-c2c(C)nn(C)c2Oc2ccc(C)c(F)c2)c(F)c1 [compound 188]
Test H rating (% disease control) [1, 4]: 0%
Test I rating (% disease control) [2, 5]: 97%
Test F rating (% disease control) (Septoria nodorum; [6]): 0%
Test C rating (% disease control) (Alternaria solani; [7]): 0%
Test J rating (% disease control) [3, 8]: 97%
Test G rating (% disease control) (Septoria tritici; [9]): 100%
Test B rating (% disease control) (Botrytis cinerea; [10]): 87%

Cc1nn(C)c(Nc2ccc(F)cc2F)c1-c1cccc(Cl)c1Cl [compound 302]
Test H rating (% disease control), marked * ([1]; wheat leaf rust, curative, rating marked with asterisk (*), meaning not given): 0* %
Test I rating (% disease control), marked * ([2]; wheat leaf rust, preventive, rating marked with asterisk (*), meaning not given): 18* %
Test F rating (% disease control), marked * (Septoria nodorum; Septoria glume blotch, rating marked with asterisk (*), meaning not given): 0* %
Test C rating (% disease control), marked * (Alternaria solani; tomato early blight, rating marked with asterisk (*), meaning not given): 0* %
Test J rating (% disease control), marked * ([3]; wheat powdery mildew, rating marked with asterisk (*), meaning not given): 97* %
Test G rating (% disease control), marked * (Septoria tritici; wheat leaf blotch, rating marked with asterisk (*), meaning not given): 99* %
Test B rating (% disease control), marked * (Botrytis cinerea; tomato Botrytis, rating marked with asterisk (*), meaning not given): 99* %

Cc1nn(C)c(Nc2c(F)cccc2F)c1-c1ccc(Cl)cc1Cl [compound 353]
Test H disease control rating ([1]; wheat leaf rust): 3%
Test I disease control rating ([2]; wheat leaf rust): 99%
Test F disease control rating (Septoria nodorum; Septoria glume blotch on wheat): 0%
Test C disease control rating (Alternaria solani; tomato early blight): 17%
Test J disease control rating ([3]; wheat powdery mildew): 99%
Test G disease control rating (Septoria tritici; wheat leaf blotch): 99%
Test B disease control rating (Botrytis cinerea; tomato Botrytis): 97%

Cc1nn(C)c(Nc2c(F)cc(F)cc2Cl)c1-c1ccc(F)cc1F [Compound 343, N-(2-chloro-4,6-difluorophenyl)-4-(2,4-difluorophenyl)-1,3-dimethyl-1H-pyrazol-5-amine]
pest or weed control at 200 µg/mL ([1]; 144 h, read-out: Test H disease control rating): 91%
pest or weed control at 200 µg/mL ([2]; 192 h, read-out: Test I disease control rating): 100%
pest or weed control at 200 µg/mL (Septoria nodorum; Parastagonospora nodorum, in Triticum aestivum, 192 h, read-out: Test F disease control rating): 97%
pest or weed control at 200 µg/mL (Alternaria solani; Alternaria solani, in Solanum lycopersicum, 168 h, read-out: Test C disease control rating): 100%
pest or weed control at 200 µg/mL ([3]; Blumeria graminis, in Triticum aestivum, 192 h, read-out: Test J disease control rating): 100%
pest or weed control at 200 µg/mL (Septoria tritici; Zymoseptoria tritici, in Triticum aestivum, 504 h, read-out: Test G disease control rating): 100%
pest or weed control at 200 µg/mL (Botrytis cinerea; Botrytis cinerea, in Solanum lycopersicum, 120 h, read-out: Test B disease control rating): 100%

Cc1nn(C)c(Nc2ccc(F)cc2Cl)c1-c1ccc(Cl)cc1Cl [compound 354]
Test H disease control rating ([1]; wheat leaf rust): 82%
Test I disease control rating ([2]; wheat leaf rust): 98%
Test F disease control rating (Septoria nodorum; Septoria glume blotch on wheat): 0%
Test C disease control rating (Alternaria solani; tomato early blight): 0%
Test J disease control rating ([3]; wheat powdery mildew): 100%
Test G disease control rating (Septoria tritici; wheat leaf blotch): 100%
Test B disease control rating (Botrytis cinerea; tomato Botrytis): 99%

Cc1nn(C)c(Nc2ccc(Cl)nc2Cl)c1-c1ccc(F)cc1Cl [compound 107]
Test H rating (% disease control), value marked * ([1]; wheat leaf rust, curative spray, rating marked with asterisk (different test condition, key not given)): 8* %
Test I rating (% disease control), value marked * ([2]; wheat leaf rust, preventive spray, rating marked with asterisk (different test condition, key not given)): 24* %
Test F rating (% disease control), value marked * (Septoria nodorum; Septoria glume blotch, preventive spray, rating marked with asterisk (different test condition, key not given)): 0* %
Test C rating (% disease control), value marked * (Alternaria solani; tomato early blight, preventive spray, rating marked with asterisk (different test condition, key not given)): 0* %
Test J rating (% disease control), value marked * ([3]; wheat powdery mildew, preventive spray, rating marked with asterisk (different test condition, key not given)): 0* %
Test G rating (% disease control), value marked * (Septoria tritici; wheat leaf blotch, preventive spray, rating marked with asterisk (different test condition, key not given)): 99* %
Test B rating (% disease control), value marked * (Botrytis cinerea; tomato Botrytis, preventive spray, rating marked with asterisk (different test condition, key not given)): 99* %

COc1ccc(Cl)c(Nc2c(-c3ccc(F)cc3F)c(C)nn2C)c1 [compound 227]
Test H rating (% disease control) [1, 4]: 0%
Test I rating (% disease control) [2, 5]: 74%
Test F rating (% disease control) (Septoria nodorum; [6]): 0%
Test C rating (% disease control) (Alternaria solani; [7]): 0%
Test J rating (% disease control) [3, 8]: 98%
Test G rating (% disease control) (Septoria tritici; [9]): 99%
Test B rating (% disease control) (Botrytis cinerea; [10]): 87%
